The target in the experiment is T1, enkephalinase preparation solubilized from rat kidneys (Rattus norvegicus, UniProt P07861).
T1 construct: enkephalinase preparation solubilized from rat kidneys; from tissue; host or cells: rat kidney
T1 sequence (P07861 1-750): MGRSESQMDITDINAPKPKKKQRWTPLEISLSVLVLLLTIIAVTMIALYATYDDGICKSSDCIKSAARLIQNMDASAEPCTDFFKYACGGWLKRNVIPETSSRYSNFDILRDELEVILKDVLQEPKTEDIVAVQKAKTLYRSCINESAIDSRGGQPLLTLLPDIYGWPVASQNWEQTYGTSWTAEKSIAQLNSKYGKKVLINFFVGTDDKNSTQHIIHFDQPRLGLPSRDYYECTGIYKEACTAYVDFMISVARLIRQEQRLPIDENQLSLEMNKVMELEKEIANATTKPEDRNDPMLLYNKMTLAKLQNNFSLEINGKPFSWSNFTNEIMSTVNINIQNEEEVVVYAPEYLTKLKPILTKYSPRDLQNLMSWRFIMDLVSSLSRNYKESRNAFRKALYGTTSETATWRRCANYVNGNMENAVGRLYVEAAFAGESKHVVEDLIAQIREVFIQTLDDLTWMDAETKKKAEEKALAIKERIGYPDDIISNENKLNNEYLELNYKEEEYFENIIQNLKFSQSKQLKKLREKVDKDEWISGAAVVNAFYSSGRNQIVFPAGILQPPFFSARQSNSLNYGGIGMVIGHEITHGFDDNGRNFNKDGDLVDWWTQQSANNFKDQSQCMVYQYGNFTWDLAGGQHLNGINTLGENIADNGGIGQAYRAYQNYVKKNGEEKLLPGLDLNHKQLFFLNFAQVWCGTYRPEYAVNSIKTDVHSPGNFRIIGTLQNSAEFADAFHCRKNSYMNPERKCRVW
Nature of the experiment: Enkephalinase assay (enkephalinase inhibition). In kind it is biochemical. To be noted: for IC50: inhibitor preincubated with the enzyme at room temperature for 60 minutes before addition of the substrate, read-out: IC50 (50% inhibition of enkephalinase); for enkephalinase-inhibitory activity of HPLC peaks: freeze-dried RP-18 HPLC fractions of crude enkastin complex from Streptomyces albus ATCC 21838. How it is done: The enzyme used was an enkephalinase preparation solubilized from rat kidneys by methods known per se [Mumford, R. A. et al. 1982, Biochem. Biophys. Res. Comm. 109, 1303-1309]. The 50% inhibition of enkephalinase by the compounds according to the invention, i.e. the IC50 value, was determined in a known manner using a concentration series, and the inhibitors, to which the invention relates, having been preincubated with the enzyme at room temperature for 60 minutes before the enzymatic reaction was started by addition of the substrate. Suitable checks for the non-inhibited reaction were carried out in the absence of an inhibitor.

One may read the IC50 as the concentration that inhibits the measured activity by half. In the case of `CC(C)[C@H](NCC(=O)[C@@H](O)[C@@H](O)[C@H](O)CO)C(=O)N[C@@H](CC(=O)O)C(=O)O` [compound 13, N-(1-deoxytagatos-1-yl)-Val-Asp], the IC50 amounted to 320 nM.

In the case of `CC(C)[C@H](NCC(=O)[C@@H](O)[C@H](O)[C@H](O)CO)C(=O)N[C@@H](CCC(=O)O)C(=O)O` [compound 6, N-(1-deoxyfructos-1-yl)-Val-Glu], the “enkephalinase-inhibitory activity of HPLC peaks” value is given as “enkephalinase-inhibitory activity” and the IC50 came out at 34 nM. As to `CC[C@H](C)[C@H](NCC(=O)[C@@H](O)[C@H](O)[C@H](O)CO)C(=O)N[C@@H](CC(=O)O)C(=O)O` [compound 7, N-(1-deoxyfructos-1-yl)-Ile-Asp], the IC50 turned out to be 34 nM. On the same count and under the same terms, to `CC[C@H](C)[C@H](NCC(=O)[C@@H](O)[C@H](O)[C@H](O)CO)C(=O)N[C@@H](CO)C(=O)O` [compound 11, N-(1-deoxyfructos-1-yl)-Ile-Ser] belongs 210 nM. With “N-(1-deoxyfructos-1-yl)-Ile-Asp [compound 3]”, the “enkephalinase-inhibitory activity of HPLC peaks” value is “enkephalinase-inhibitory activity” and the IC50 worked out at 1.8 nM. As for `CC[C@@H](C)[C@@H](NCC(=O)[C@@H](O)[C@H](O)[C@H](O)CO)C(=O)N[C@@H](CC(=O)O)C(=O)O` [compound 2, N-(1-deoxyfructos-1-yl)-D-Ile-Asp], the IC50 worked out at 1.8 nM. Still for that read-out and setting: with `CC[C@@H](C)[C@@H](NCC(=O)[C@@H](O)[C@H](O)[C@H](O)CO)C(=O)O` [compound 14, N-(1-deoxyfructos-1-yl)-D-Ile] the figure was 340 nM.

For `CC(C)[C@@H](NCC(=O)[C@@H](O)[C@H](O)[C@H](O)CO)C(=O)O` [compound 12, N-(1-deoxyfructos-1-yl)-D-Val], the IC50 came out at 230 nM. Same read-out and setting: to “N-(1-deoxyfructos-1-yl)-Hhp-Asp [compound 10]” belongs 75 nM; to `O=C(O)CC[C@H](NC(=O)[C@H](Cc1ccccc1)NCC(=O)[C@@H](O)[C@H](O)[C@H](O)CO)C(=O)O` [compound 5, N-(1-deoxyfructos-1-yl)-Phe-Glu], 56 nM. For `CC[C@H](C)[C@H](NCC(=O)[C@@H](O)[C@H](O)[C@H](O)CO)C(=O)N[C@@H](CCC(=O)O)C(=O)O` [compound 8, N-(1-deoxyfructos-1-yl)-Ile-Glu], the “enkephalinase-inhibitory activity of HPLC peaks” value is listed as “enkephalinase-inhibitory activity” and the IC50 is 56 nM.

`CC[C@H](C)[C@H](NCC(=O)[C@@H](O)[C@H](O)[C@H](O)CO)C(=O)N[C@@H](CC(=O)OC(C)(C)C)C(=O)O` [compound 9, N-(1-deoxyfructos-1-yl)-Ile-Asp(OtBu)]: the IC50 amounted to 70 nM. For the molecule `CC(C)[C@H](NCC(=O)[C@@H](O)[C@H](O)[C@H](O)CO)C(=O)N[C@@H](CC(=O)O)C(=O)O` [compound 4, N-(1-deoxyfructos-1-yl)-Val-Asp], the “enkephalinase-inhibitory activity of HPLC peaks” value is reported as “enkephalinase-inhibitory activity” and the 50% inhibitory concentration (IC50) amounted to 6.3 nM. Consider `CC(C)[C@@H](NCC(=O)[C@@H](O)[C@H](O)[C@H](O)CO)C(=O)N[C@@H](CC(=O)O)C(=O)O` [compound 1, N-(1-deoxyfructos-1-yl)-D-Val-Asp], for which the IC50 worked out at 1.3 nM.
